Assay results published in paper PMC6974726, “Acetylation changes tau interactome to degrade tau in Alzheimer’s disease animal and organoid models” (Aging Cell, 2019).

Assays:
HDAC6 = system: HDAC6; set-up: method as in Fan, Huang, Liou, & Yang, 2018; conditions: ref Fan, Huang, Liou, & Yang, 2018; cited from earlier work
HDAC 1–11 = assay: HDAC enzymatic assay panel (IC50 heat maps); type: biochemical; conditions: HDAC 1–11, recombinant human enzymes
Protocol: Data are expressed as mean ± SEM.
The percentages of enzyme activity (relative to DMSO controls) and IC50 values were calculated using the GraphPad Prism 4 program based on a sigmoidal dose-response equation.

Row | selectivity among HDAC isoforms (heat maps of IC50 values) (HDAC 1–11) | SMILES | acetylation of Hsp90 (HDAC6) | ubiquitination of phosphorylated tau (HDAC6)
1 |  | O=C(NO)c1ccc(CNc2cccc3cccnc23)cc1 [MPT0G211] | increased | increased
2 | no selectivity among HDAC isoforms | Cc1[nH]c2ccccc2c1CCNCc1ccc(/C=C/C(=O)NO)cc1 [panobinostat] |  | 
